From patent US10206400B2, “Insecticidal compounds based on isoxazoline derivatives” (Syngenta Crop Protection LLC, priority 2009, dated 2019)

Columns and labels:
Type in all cases: in vivo
Spodoptera littoralis = Spodoptera littoralis (Egyptian cotton leafworm) leaf disc spray test; conditions: foliar, 72 h, 200 ppm spray on cotton leaf discs, L1 larvae, mortality, feeding behavior, growth regulation 3 days after treatment
From the text: Cotton leaf discs were placed on agar in a 24-well microtiter plate and sprayed with test solutions at an application rate of 200 ppm. After drying, the leaf discs were infested with 5 L1 larvae. The samples were checked for mortality, feeding behavior, and growth regulation 3 days after treatment (DAT).

Heliothis virescens = Heliothis virescens (tobacco budworm) egg/artificial diet test; conditions: 96 h, 200 ppm (concentration in well 18 ppm), eggs 0-24 h old on artificial diet, 4 days, egg mortality, larval mortality, growth regulation
Method: Eggs (0-24 h old) were placed in 24-well microtiter plate on artificial diet and treated with test solutions at an application rate of 200 ppm (concentration in well 18 ppm) by pipetting. After an incubation period of 4 days, samples were checked for egg mortality, larval mortality, and growth regulation.

Plutella xylostella = Plutella xylostella (diamond back moth) artificial diet test; conditions: 144 h, 200 ppm (concentration in well 18 ppm), L2 larvae, 6 days, larval mortality, growth regulation
Method: (§1) 24-well microtiter plate (MTP) with artificial diet was treated with test solutions at an application rate of 200 ppm (concentration in well 18 ppm) by pipetting. After drying, the MTP's were infested with L2 larvae (7-12 per well). After an incubation period of 6 days, samples were checked for larval mortality and growth regulation.

Diabrotica balteata = Diabrotica balteata (corn root worm) artificial diet test; conditions: 120 h, 200 ppm (concentration in well 18 ppm), L2 larvae, 5 days, larval mortality, growth regulation
Method: as §1, with “A 24-well” for “24-well”, “(6-10” for “(7-12”, “5” for “6”

Myzus persicae = Myzus persicae (green peach aphid), systemic test; conditions: 144 h, roots of infested pea seedlings in test solution, 6 days, mortality, special effects on the plant
From the text: Myzus persicae (Green peach aphid), systemic test: Roots of pea seedlings, infested with an aphid population of mixed ages, are placed directly in the test solutions at an application rate of 12.5 ppm. 6 days after introduction, samples are checked for mortality and special effects on the plant. The following compounds gave at least 80% control of Myzus persicae: A3, B2, B3, B5, B6, B7, B8, B11, B12, C1, C2, C3,C4, C5, C6, C7, D1, E1, E2, G1, G3, G5, G6, H1, H5, H6, H9, H10, H11, H12, H13, H14, H18, H19, H20, H24, H25, and H26.

Thrips tabaci = Thrips tabaci (onion thrips) leaf disc spray test; conditions: foliar, 168 h, 200 ppm spray on sunflower leaf discs, mixed ages, 7 days, mortality
Method: [The procedure below names another target; the source lists this target under the same test.] Sunflower leaf discs were placed on agar in a 24-well microtiter plate and sprayed with test solutions at an application rate of 200 ppm. After drying, the leaf discs were infested with an […] population of mixed ages. After an incubation period of 7 days, samples were checked for mortality.

Tetranychus urticae = Tetranychus urticae (two-spotted spider mite) leaf disc spray test; conditions: foliar, 192 h, 200 ppm spray on bean leaf discs, mixed ages, 8 days, egg, larval and adult mortality
From the text: Bean leaf discs on agar in 24-well microtiter plates were sprayed with test solutions at an application rate of 200 ppm. After drying, the leaf discs are infested with mite populations of mixed ages. 8 days later, discs are checked for egg mortality, larval mortality, and adult mortality.

CCN1OC[C@@H](NC(=O)c2ccc(C3=NOC(c4cc(Cl)cc(Cl)c4)(C(F)(F)F)C3)cc2C)C1=O (stereo partly drawn) [Compound B6, 4-[5-(3,5-Dichloro-phenyl)-5-trifluoromethyl-4,5-dihydro-isoxazol-3-yl]-2-methyl-N-((R)-2-ethyl-3-oxo-isoxazolidin-4-yl)-benzamide]
≥ 80%: pest or weed control at 200 ppm (Spodoptera littoralis) | pest or weed control at 200 ppm (Heliothis virescens) | pest or weed control at 200 ppm (Plutella xylostella) | pest or weed control at 200 ppm (Diabrotica balteata) | pest or weed control at 12.5 ppm (Myzus persicae) | pest or weed control at 200 ppm (Thrips tabaci) | pest or weed control at 200 ppm (Tetranychus urticae)

CCN1OC[C@H](NC(=O)c2ccc(C3=NOC(c4cc(Cl)cc(Cl)c4)(C(F)(F)F)C3)cc2C)C1=O (stereo partly drawn) [Compound E2, 4-[5-(3,5-Dichloro-phenyl)-5-trifluoromethyl-4,5-dihydro-isoxazol-3-yl]-2-methyl-N-((S)-2-ethyl-3-oxo-isoxazolidin-4-yl)-benzamide]
≥ 80%: pest or weed control at 200 ppm (Spodoptera littoralis) | pest or weed control at 200 ppm (Heliothis virescens) | pest or weed control at 200 ppm (Plutella xylostella) | pest or weed control at 200 ppm (Diabrotica balteata) | pest or weed control at 12.5 ppm (Myzus persicae) | pest or weed control at 200 ppm (Thrips tabaci) | pest or weed control at 200 ppm (Tetranychus urticae)

CCN1CC(CNC(=O)c2ccc(C3=NOC(c4cc(Cl)cc(Cl)c4)(C(F)(F)F)C3)cc2C)CS1(=O)=O (stereo not shown) [Compound D1, 4-[5-(3,5-Dichloro-phenyl)-5-trifluoromethyl-4,5-dihydro-isoxazol-3-yl]-N-(2-ethyl-1,1-dioxo-1lambda*6*-isothiazolidin-4-ylmethyl)-2-methl-benzamide]
≥ 80%: pest or weed control at 200 ppm (Spodoptera littoralis) | pest or weed control at 200 ppm (Heliothis virescens) | pest or weed control at 200 ppm (Plutella xylostella) | pest or weed control at 200 ppm (Diabrotica balteata) | pest or weed control at 12.5 ppm (Myzus persicae) | pest or weed control at 200 ppm (Thrips tabaci) | pest or weed control at 200 ppm (Tetranychus urticae)

CCN1OC[C@@H](NC(=O)c2ccc(C3=NO[C@@](c4cc(Cl)cc(Cl)c4)(C(F)(F)F)C3)cc2C)C1=O [Compound G1, 4-[5-(3,5-dichloro-phenyl)-5-(S)-trifluoromethyl-4,5-dihydro-isoxazol-3-yl]-2-methyl-N—((R)-2-ethyl-3-oxo-isoxazolidin-4-yl)-benzamide]
≥ 80%: pest or weed control at 200 ppm (Spodoptera littoralis) | pest or weed control at 200 ppm (Heliothis virescens) | pest or weed control at 200 ppm (Plutella xylostella) | pest or weed control at 200 ppm (Diabrotica balteata) | pest or weed control at 12.5 ppm (Myzus persicae) | pest or weed control at 200 ppm (Thrips tabaci) | pest or weed control at 200 ppm (Tetranychus urticae)
